According to patent EP1247803A2, “Indolinone compounds suitable for modulation of protein kinases” (Sugen, Inc., priority 1996, dated 1998):

How the values were obtained:
FLK-1 receptor = target: T1, FLK-1 receptor (Mus musculus, UniProt P35918); assay: FLK-1 ELISA (kinase activity of the FLK-1 receptor in FLK-1/NIH3T3 cells, VEGF stimulated); type: cell-based
T1 construct: expressed in transfected cells; host or cells: NIH3T3 C7#3
Procedure, shortened: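 FLK-1-expressing NIH3T3 C7#3 cells, starved overnight in 0.1% FBS medium, were treated with compounds at a 1:200 final dilution (0.5% DMSO) for 2 h at 37 °C, with VEGF stimulation. FLK-1 kinase activity was read by ELISA on anti-rabbit IgG plates using affinity-purified anti-FLK-1 antiserum.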

PDGF-R = PDGF-R (Homo sapiens, UniProt P09619); assay: PDGF-R ELISA; type: cell-based
Sequence of PDGF-R (P09619 33-1106, species assumed): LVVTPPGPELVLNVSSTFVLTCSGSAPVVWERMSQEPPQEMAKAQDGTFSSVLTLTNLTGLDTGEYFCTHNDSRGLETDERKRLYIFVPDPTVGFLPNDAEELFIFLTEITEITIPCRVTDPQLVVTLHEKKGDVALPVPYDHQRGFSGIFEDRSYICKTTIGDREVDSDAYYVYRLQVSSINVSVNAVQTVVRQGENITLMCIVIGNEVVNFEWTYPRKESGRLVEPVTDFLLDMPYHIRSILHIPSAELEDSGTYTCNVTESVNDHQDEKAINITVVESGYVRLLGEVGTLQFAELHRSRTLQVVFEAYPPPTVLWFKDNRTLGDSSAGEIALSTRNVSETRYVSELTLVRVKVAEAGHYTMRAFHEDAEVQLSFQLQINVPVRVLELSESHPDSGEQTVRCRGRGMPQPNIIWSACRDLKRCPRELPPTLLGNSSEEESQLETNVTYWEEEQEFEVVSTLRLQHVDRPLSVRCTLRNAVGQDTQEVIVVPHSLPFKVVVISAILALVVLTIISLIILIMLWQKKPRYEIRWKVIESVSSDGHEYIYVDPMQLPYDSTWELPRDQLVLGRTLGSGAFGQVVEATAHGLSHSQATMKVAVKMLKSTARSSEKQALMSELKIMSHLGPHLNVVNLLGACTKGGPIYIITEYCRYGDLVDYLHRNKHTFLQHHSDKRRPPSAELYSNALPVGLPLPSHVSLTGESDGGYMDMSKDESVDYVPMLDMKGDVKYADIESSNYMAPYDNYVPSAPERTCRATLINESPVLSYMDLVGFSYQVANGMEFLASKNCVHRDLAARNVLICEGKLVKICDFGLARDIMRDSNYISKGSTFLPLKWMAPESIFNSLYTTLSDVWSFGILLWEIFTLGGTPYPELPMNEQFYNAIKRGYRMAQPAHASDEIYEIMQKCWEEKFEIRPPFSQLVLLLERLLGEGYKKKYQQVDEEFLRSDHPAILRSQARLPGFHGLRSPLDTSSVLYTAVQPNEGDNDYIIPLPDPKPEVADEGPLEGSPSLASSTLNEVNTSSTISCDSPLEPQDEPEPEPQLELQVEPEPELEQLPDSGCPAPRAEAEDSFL
Description: A PDGF-R ELISA is described in International Patent Publication No. WO 96/40116, published December 19, 1996 by Tang et al.

T1 sequence (P35918 20-1345): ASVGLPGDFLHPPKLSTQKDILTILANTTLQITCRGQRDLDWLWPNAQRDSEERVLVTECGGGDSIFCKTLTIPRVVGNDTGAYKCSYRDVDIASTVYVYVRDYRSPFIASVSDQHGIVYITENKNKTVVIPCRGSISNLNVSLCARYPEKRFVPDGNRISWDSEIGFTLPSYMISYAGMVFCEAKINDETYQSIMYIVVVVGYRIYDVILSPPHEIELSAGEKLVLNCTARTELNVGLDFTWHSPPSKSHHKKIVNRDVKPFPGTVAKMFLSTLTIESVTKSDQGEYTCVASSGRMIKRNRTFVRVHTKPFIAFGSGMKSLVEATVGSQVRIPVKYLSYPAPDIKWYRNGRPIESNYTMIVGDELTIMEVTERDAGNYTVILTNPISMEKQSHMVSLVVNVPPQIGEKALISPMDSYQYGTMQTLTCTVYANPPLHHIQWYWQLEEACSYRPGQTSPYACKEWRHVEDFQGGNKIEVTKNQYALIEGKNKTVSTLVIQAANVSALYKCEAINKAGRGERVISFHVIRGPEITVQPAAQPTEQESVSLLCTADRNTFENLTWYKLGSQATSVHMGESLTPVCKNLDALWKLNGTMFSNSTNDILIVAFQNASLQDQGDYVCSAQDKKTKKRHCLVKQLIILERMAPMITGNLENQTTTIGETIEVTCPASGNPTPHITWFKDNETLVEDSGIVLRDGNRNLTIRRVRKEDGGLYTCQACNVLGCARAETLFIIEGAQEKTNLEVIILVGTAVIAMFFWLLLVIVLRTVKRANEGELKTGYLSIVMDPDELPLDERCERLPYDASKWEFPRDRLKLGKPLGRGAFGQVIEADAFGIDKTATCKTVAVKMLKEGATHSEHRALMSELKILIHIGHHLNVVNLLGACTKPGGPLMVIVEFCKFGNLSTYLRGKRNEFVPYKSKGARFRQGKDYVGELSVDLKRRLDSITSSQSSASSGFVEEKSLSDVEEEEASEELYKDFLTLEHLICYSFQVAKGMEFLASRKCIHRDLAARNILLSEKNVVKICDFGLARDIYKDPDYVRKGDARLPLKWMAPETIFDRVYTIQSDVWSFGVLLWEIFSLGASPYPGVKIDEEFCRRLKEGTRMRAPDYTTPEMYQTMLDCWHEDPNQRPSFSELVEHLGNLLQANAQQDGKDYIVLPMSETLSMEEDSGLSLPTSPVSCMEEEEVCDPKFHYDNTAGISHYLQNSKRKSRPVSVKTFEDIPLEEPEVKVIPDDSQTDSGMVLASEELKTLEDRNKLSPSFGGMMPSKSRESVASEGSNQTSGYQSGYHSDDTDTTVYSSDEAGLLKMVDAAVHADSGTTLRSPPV

Structure (SMILES) | Fik Kinase %Inhibition (FLK-1 receptor) [%] | PDGF Kinase %Inhibition (PDGF-R) [%]
O=C1Nc2ccc(I)cc2C1=Cc1c(F)cccc1C(F)(F)F [10728/B09] | 1.7 | -0.4
Cc1c(Br)ccc2c1C(=Cc1cc(C(F)(F)F)ccc1F)C(=O)N2 [10728/C08] | -2.2 | 9.4
O=C1Nc2c(Br)cc(Br)cc2C1=Cc1cccc(C(F)(F)F)c1F [10728/A07] | -21.6 | 31.1
COc1cc(N(C)C)ccc1C=C1C(=O)Nc2c(Br)cc(Br)cc21 [10728/A05] | -10.8 | 4.5
CNS(=O)(=O)c1ccc2c(c1)C(=Cc1ccc(N(C)C)cc1OC)C(=O)N2 [10728/D05] | 4.9 | 7.2
COc1cccc(OC)c1C=C1C(=O)Nc2ccc(Br)c(C)c21 [10728/C03] | 10.5 | 24.9
N#Cc1ccc(C=C2C(=O)Nc3ccc(S(=O)(=O)N4CCOCC4)cc32)cc1 [10727/F09] | -45.2 | 21.7
COc1cc(C=C2C(=O)Nc3ccc(I)cc32)cc2c1OCO2 [10728/B11] | -1.0 | -12.4
COc1cccc(C=C2C(=O)Nc3ccc(S(=O)(=O)N4CCOCC4)cc32)c1OC [10727/F11] | 17.3 | 18.1
N#Cc1ccc(C=C2C(=O)Nc3ccc(CCCl)cc32)cc1 [10727/G09] | 5.7 | 10.8
N#Cc1cccc(C=C2C(=O)Nc3ccc(CCCl)cc32)c1 [10727/G08] | 15.7 | -7.4
O=C1Nc2ccc(CCCl)cc2C1=Cc1coc2ccccc2c1=O [10727/G07] | 7.2 | -24.1
Cc1c(Br)ccc2c1C(=Cc1ccccc1OCC(=O)O)C(=O)N2 [10728/C10] | 6.1 | 11.2
COc1cc(C=C2C(=O)Nc3ccc(Br)c(C)c32)cc(OC)c1 [10728/C04] | -0.0 | 27.2
COc1cc(N(C)C)ccc1C=C1C(=O)Nc2ccc(Br)c(C)c21 [10728/C05] | -21.7 | 23.2
COc1cc(C=C2C(=O)Nc3c(Br)cc(Br)cc32)cc2c1OCO2 [10728/A11] | -2.3 | -9.3
CCc1cc(CC)c(C=C2C(=O)Nc3ccc(CCCl)cc32)[nH]1 [10727/G03] | -3.5 | -10.3

Structure (SMILES) | Fik Kinase %Inhibition (FLK-1 receptor) [%] | PDGF Kinase %Inhibition (PDGF-R) [%]
O=C1Nc2ccc(CCCl)cc2C1=Cc1cc2c(cc1Cl)OCO2 [10727/G06] | 2.9 | -12.5
CNS(=O)(=O)c1ccc2c(c1)C(=Cc1cccc(OC)c1OC)C(=O)N2 [10727/D11] | 10.5 | 17.4
COc1cccc(OC)c1C=C1C(=O)Nc2c(Br)cc(Br)cc21 [10728/A03] | -7.3 | -7.9
O=C1Nc2ccc(S(=O)(=O)N3CCOCC3)cc2C1=Cc1ccccc1Sc1ccc(Cl)cc1 [10727/F05] | 21.8 | -3.7
CCN(CC)c1ccc(C=C2C(=O)Nc3ccc(S(=O)(=O)N4CCOCC4)cc32)cc1 [10727/F02] | 15.9 | 11.5
Cc1c(Br)ccc2c1C(=Cc1c(F)cccc1C(F)(F)F)C(=O)N2 [10728/C09] | 14.5 | 8.1
CNS(=O)(=O)c1ccc2c(c1)C(=Cc1cc(Cl)cc(Br)c1O)C(=O)N2 [10727/D04] | 25.9 | 6.4
O=C1Nc2ccc(CCCl)cc2C1=Cc1cc(Cl)cc(Br)c1O [10727/G04] | 27.2 | -27.0
O=C(O)COc1ccccc1C=C1C(=O)Nc2ccc(I)cc21 [10728/B10] | 3.9 | 2.7
O=C1Nc2ccc(S(=O)(=O)N3CCOCC3)cc2C1=Cc1coc2ccccc2c1=O [10727/F07] | 21.4 | 2.1
CNS(=O)(=O)c1ccc2c(c1)C(=Cc1cc(OC)cc(OC)c1)C(=O)N2 [10728/D04] | 6.8 | 26.7
CCN(CC)c1ccc(C=C2C(=O)Nc3ccc(S(=O)(=O)Nc4ccc(C(F)(F)F)cc4)cc32)cc1 [10727/E02] | 9.3 | -6.7
CNS(=O)(=O)c1ccc2c(c1)C(=Cc1ccc(C#N)cc1)C(=O)N2 [10727/D09] | 8.2 | 7.2
O=C1Nc2ccc(I)cc2C1=Cc1cccc(C(F)(F)F)c1F [10728/B07] | 31.4 | 20.9
O=C1Nc2ccc(S(=O)(=O)Nc3ccc(C(F)(F)F)cc3)cc2C1=Cc1cc(Cl)cc(Br)c1O [10727/E04] | 46.1 | -7.4
CNS(=O)(=O)c1ccc2c(c1)C(=Cc1cc(O)ccc1O)C(=O)N2 [10727/D10] | 11.4 | 9.4
CCN(CC)c1ccc(C=C2C(=O)Nc3ccc(CCCl)cc32)cc1 [10727/G02] | 7.1 | -20.5
